# Source: patent US20090075989A1, “NON-STEROIDAL PROGESTERONE RECEPTOR MODULATORS” (priority 2006, published 2009)
# Biological target: T1, progesterone receptor PR (PR-B) (Homo sapiens, UniProt P06401)
# T1 sequence (P06401 1-933): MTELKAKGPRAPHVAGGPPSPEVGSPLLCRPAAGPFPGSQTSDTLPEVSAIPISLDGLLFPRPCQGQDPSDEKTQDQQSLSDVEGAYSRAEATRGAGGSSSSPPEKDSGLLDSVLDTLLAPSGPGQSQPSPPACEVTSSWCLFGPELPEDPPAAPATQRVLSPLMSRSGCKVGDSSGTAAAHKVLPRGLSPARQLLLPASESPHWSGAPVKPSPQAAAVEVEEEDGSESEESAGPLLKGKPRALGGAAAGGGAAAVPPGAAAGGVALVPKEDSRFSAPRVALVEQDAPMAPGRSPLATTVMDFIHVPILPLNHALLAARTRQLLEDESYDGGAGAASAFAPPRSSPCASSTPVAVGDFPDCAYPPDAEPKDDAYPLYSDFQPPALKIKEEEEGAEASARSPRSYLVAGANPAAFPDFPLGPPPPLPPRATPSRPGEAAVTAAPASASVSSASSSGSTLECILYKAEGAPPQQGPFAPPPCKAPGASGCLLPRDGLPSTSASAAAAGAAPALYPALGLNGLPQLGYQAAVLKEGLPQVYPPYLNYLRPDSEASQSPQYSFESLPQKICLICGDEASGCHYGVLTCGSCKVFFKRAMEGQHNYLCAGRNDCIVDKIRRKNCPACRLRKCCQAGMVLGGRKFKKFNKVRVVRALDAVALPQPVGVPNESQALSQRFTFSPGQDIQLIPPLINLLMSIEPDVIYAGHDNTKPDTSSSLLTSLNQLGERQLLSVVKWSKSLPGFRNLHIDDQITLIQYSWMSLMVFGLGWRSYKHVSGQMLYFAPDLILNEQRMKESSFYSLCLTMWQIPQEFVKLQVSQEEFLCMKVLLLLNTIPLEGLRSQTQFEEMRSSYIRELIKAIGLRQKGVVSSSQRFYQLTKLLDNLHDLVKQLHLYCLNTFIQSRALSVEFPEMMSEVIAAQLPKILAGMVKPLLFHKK
# Assay: Transactivation assay, antagonism on the progesterone receptor PR
# Assay type: cell-based
# Conditions: transactivation test for antagonistic activity on (PR-B)
# Description: Antagonism on the progesterone receptor PR
# The transactivation assay is carried out as described in WO 02/054064.
row,Compound,IC50 [nM]
1,"N#Cc1ccc(NC(=O)C(O)(Cc2ccccc2)c2ccccc2)cc1Cl (racemic) [Example 29b, rac-N-(3-chloro-4-cyanophenyl)-2-hydroxy-2,3-diphenylpropionamide]",40
2,COc1ccc(C#CC(O)(C(=O)Nc2ccc(C#N)c(Cl)c2)c2ccccc2)cc1 (racemic) [Example 80],40
3,"N#Cc1ccc(NC(=O)C(O)(Cc2ccccc2)c2ccccc2)cc1C(F)(F)F (racemic) [Example 34b, rac-N-(4-cyano-3-trifluoromethylphenyl)-2-hydroxy-2,3-diphenylpropionamide]",71
4,"Cc1noc(=O)c2ccc(NC(=O)C(O)(Cc3ccccc3)c3ccccc3)cc12 (racemic) [Example 5, rac-6-[2-hydroxy-2,3-diphenylpropionylamino]-4-methyl-2,3-benzoxazin-1-one]",5
5,"Cc1noc(=O)c2ccc(NC(=O)C(O)(Cc3ccccc3)c3ccc([N+](=O)[O-])cc3)cc12 (racemic) [Example 10, rac-6-[2-hydroxy-2-(4-nitrophenyl)-3-phenylpropionylamino]-4-methyl-2,3-benzoxazin-1-one]",5
6,"Cc1noc(=O)c2ccc(NC(=O)C(O)(C#Cc3ccccc3)c3ccccc3)cc12 (racemic) [Example 1b, rac-6-[2,4-diphenyl-2-hydroxybut-3-ynoylamino]-4-methyl-2,3-benzoxazin-1-one]",30

# Next, values leading:
row,IC50 [nM],Compound
1,39.8,"Cc1noc(=O)c2ccc(NC(=O)C(O)(Cc3ccccc3)c3ccc(-c4cccs4)cc3)cc12 (racemic) [Example 75, rac-6-[2-hydroxy-2-(4-thiophen-2-ylphenyl)-3-phenylpropionylamino]-4-methyl-2,3-benzoxazin-1-one]"
2,8.9,"Cc1noc(=O)c2ccc(NC(=O)C(O)(Cc3ccccc3)c3cccs3)cc12 (racemic) [Example 64b, rac-6-[2-hydroxy-2-(thiophen-2-yl)-3-phenylpropionylamino]-4-methyl-2,3-benzoxazin-1-one]"
3,50,"Cc1noc(=O)c2ccc(NC(=O)C(O)(Cc3ccccc3)c3ccc(N(C)C)cc3)cc12 (racemic) [Example 48d, rac-6-[2-hydroxy-2-(4-dimethylaminophenyl)-3-phenylpropionylamino]-4-methyl-2,3-benzoxazin-1-one]"
4,32,"CC(=O)c1ccc(C(O)(Cc2ccccc2)C(=O)Nc2ccc3c(=O)onc(C)c3c2)cc1 (racemic) [Example 55f, rac-6-[2-hydroxy-2-(4-acetylphenyl)-3-phenylpropionylamino]-4-methyl-2,3-benzoxazin-1-one]"
5,3.2,"Cc1noc(=O)c2ccc(NC(=O)C(O)(Cc3ccccc3)c3ccc(C(C)(C)C)cc3)cc12 (racemic) [Example 45c, rac-6-[2-hydroxy-2-(4-(1,1-dimethylethyl)phenyl)-3-phenylpropionylamino]-4-methyl-2,3-benzoxazin-1-one]"
